Laboratory results: patent publication US20250100962A1 (CITY OF HOPE, priority 2023, published 2025)

Key:
[1] = tested on: 3T3-L1 preadipocytes containing Per2::dLuc luciferase reporter; test: Bioluminescence monitoring of Per2::dLuc reporter in 3T3-L1 preadipocytes; type: cell-based
Protocol: Generation of stable adipogenic progenitor cell lines containing Per2::dLuc. 3T3-L1 preadipocytes and the C3H10T1/2 mesenchymal stem cells obtained from ATCC were used for Per2:: dLuc lentiviral transduction and stable clone selection using puromycin, as described previously (Guo et al., 2012). Briefly, cells were transfected with lentiviral packaging plasmids (pSPAX.2 and pMD2.G) and lentivirus vectors Per2::dLuc using PEI Max (Polysciences). At 48 hours post-transfection, lentiviruses were collected. 3T3-L1 and C3H10T1/2 […] cells were infected using collected lentiviral media supplemented with polybrene. 24 hours following lentiviral infection, stable cell lines were selected in the presence of 2 μg/ml puromycin.
Continuous Bioluminescence monitoring of Per2:: dLuc luciferase reporter. 3T3-L1 and C3H10T1/2 cells containing a Per2::dLuc luciferase reporter were generated as described previously (Xiong et al., 2023). […] Raw and subtracted results of real-time bioluminescence recording data for 6 days were exported, and data was calculated as luminescence counts per second, as previously described (Xiong, Li, Nam et al., 2022). […] Briefly, raw data following the first cycle from day 2 to […] were fitted to a linear baseline, and the baseline-subtracted data (polynomial number=1) were fitted to a sine wave, from which period length and goodness of fit and damping constant were determined.

U2OS cells = test: Clock gene and protein expression in U2OS cells (immunoblot, RT-qPCR); type: cell-based; conditions: 24 h
Protocol: Total protein (20-30 μg) was extracted using standard IP Lysis buffer (3% NaCl, 5% Tris-HCl, 10% Glycerol, 0.5% Triton X-10 in Sterile MilliQ water) and resolved on 10% SDS-Page gels followed by western blotting on Immun-Blot PVDF Membranes for Protein Blotting (Bio-rad). Antibodies used were diluted in 5% milk (Labscientific CN: M0841). Membranes were washed with TBS-T [10% TBS, 0.1% Tween™ 20 (Fisher BioReagents CN: BP377-500)]. Images were developed using Luminol solution 1:1 SuperSignal West Pico PLUS Stable Peroxide Solution (Thermo Scientific CN: 1863095) and SuperSignal West Pico PLUS Luminol Enhancer Solution (Thermo Scientific CN: 1863094) on chemiluminescence imager (GE Healthcare Bio-Sciences AB Amersham Imager 680).
Cells extracted with TRIzol™ Reagent (Ambion CN: 15596018) were collected. RNA extraction was performed with Chloroform (Fisher Chemical CN: C298-500) and Isopropanol (Fisher Chemical CN: A451SK-4) extraction followed by two purification steps with 75% Ethanol (Fisherbrand CN: HC-800-1GAL) and elution in Sterile MilliQ water.
The RNA concentration was measured using Nanodrop spectrophotometer (Thermo Fisher). Following RNA extraction, retro transcription was performed using RevertAid RT Reverse Transcription Kit (Thermo Fisher CN: K1691) and run on SimpliAmp Thermal Cycler (Thermo Fisher CN: A24811) according to the kit procedure. Quantitative PCR was performed using PowerUp™ SYBR™ Green Master Mix (Thermo Fisher CN: A25742) using a dilution of 5:2:1 master mix, RNA and H2Omq according to the protocol on ViiA 7 Real-Time PCR System (Applied Biosystems). Relative expression levels were determined using the comparative Ct method to normalize target genes to 36B4 internal controls.

C2C12 myoblast cell line = test: MTT cell viability of C2C12 myoblasts; type: cell-based; conditions: 0.2-5 μM for 48 hours
Protocol: Cells were seeded at 5×10^4 concentration in 100 μl culture medium into 96 wells flat bottom microplates and treated after 24 h with desired compounds and controls. After desired incubation periods, cells were treated with MTT labeling reagent 1× (MTT (3-[4,5-dimethylthiazol-2-yl]-2,5-diphenyltetrazolium bromide labeling reagent, 5 mg/ml in PBS, Roche Cell Proliferation Kit I (MTT)) and Solubilization buffer 1× (10% SDS in 0.01 M HCl and left overnight. Next morning absorbance was measured at 570 nm and 700 nm on microplate (ELISA) reader (TECAN infinite M200pro). The mean and standard deviation values were calculated for each well and graphed.
FIGS. 41A-41D. Effect of Chlorhexidine (CHX) and CM002 treatment on viability of mouse and human myoblasts. To determine potential toxic effects of CHX and CM002, we treated mouse C2C12 myoblast cell line with increasing concentrations from 0.2-5 μM for 48 hours and determined cell viability using the MTT assay (FIG. 41A). […] Considering the inflammatory milieus in dystrophic muscles, we further tested the tolerance of myoblasts to these molecules in the presence of inflammatory stimuli, a cytokine cocktail (CC) consisted of 10 ng/mL IL-1β, 100 ng/mL IFN-γ and 25 ng/mL of TNF-α (FIG. 41B). […] Lastly, human primary myoblasts derived from Duchene Muscular Dystrophy (DMD) patients were used to determine their tolerance to these compounds.

[2] = tested on: CLOCK and Bmal1 interaction; test: Co-immunoprecipitation of Bmal1 with Myc-CLOCK; type: cell-based
C57/BL6 mice = test: Metabolic cage monitoring of C57/BL6 mice after intraperitoneal injection; type: in vivo, mouse; conditions: 5 mg/Kg IP daily
Protocol: To examine potential effects of CM002 on central clock located in suprachiasmatic nuclei that controls food intake, activity and sleep rhythms, we administered CM002 (5 mg/Kg) together with DMSO as vehicle control using daily IP injections in normal C57/BL6 mice. Mice received daily injections for 3 doses and their food and water intake, activity level and energy expenditure were monitored using metabolic cages for 3 days.

mdx mice = type: in vivo; conditions: 10 mg/kg IP daily, 3 doses; vs non-treated or DMSO
Protocol: FIGS. 48A-48C. Systemic delivery of CM002 by intraperitoneal injection improves muscle strength in dystrophic mdx mice. Based on the PK analysis, we determined the maximal lethal dose in mdx mice via daily intraperitoneal injections using escalating doses. Starting doses were tested at 10, 20 and 30 mg/Kg/day, for 3 consecutive days in male or female mdx mice (FIG. 48A).

Compound: [H]/N=C(\N/C(=N/[H])NCCCCCCNC(=N)NC(=N)Nc1ccc(Cl)cc1)Nc1ccc(Cl)cc1 [CHX, chlorhexidine]
- clock cycling amplitude [1]: increasing amplitude
- clock period length [1]: reducing period length
- CLOCK and Bmal1 transcripts (U2OS cells; RT-qPCR): markedly up-regulated
- Dbp, Nr1d1, Nr1d2 and Cry2 transcripts (U2OS cells; RT-qPCR): stimulated
- Bmal1 protein expression (U2OS cells; immunoblot): elevated Bmal1 expression at 0.2 and 0.5 μM
- CLOCK protein levels (U2OS cells; immunoblot): sufficient to induce CLOCK protein levels
- Rev-erbα (Nr1d1) and Period 2 (Per 2) protein (U2OS cells; immunoblot): induced by CHX in a largely dose-dependent manner
- concentration at which number of viable cells drops (C2C12 myoblast cell line): 2500 nM
- Bmal1 interaction with CLOCK C267 mutant ([2]; Cysteine to Alanine mutant of CLOCK): failed to increase Bmal1 interaction with CLOCK C267 mutant
- Bmal1 immunoprecipitated by Myc-CLOCK (CLOCK/Bmal1 interaction) ([2]; wild-type CLOCK, CHX 0.5 and 1 μM): sufficient to augment their interaction

Compound: CCCCCC/C=N/C(=N)NC(=N)Nc1ccc(Cl)cc1 [CM002]
- daily ambulatory activity levels (C57/BL6 mice): tendency toward reduction although not significantly altered
- water consumption (C57/BL6 mice): remains comparable between groups
- accumulative food consumption, relative to normal food intake level (C57/BL6 mice; 3 doses, after 3 days): ~25%
- energy expenditure (C57/BL6 mice; calculated from oxygen consumption): persistently elevated
- increase of grip strength (mdx mice): ~16%
